We go through 1 compound from patent publication US20110162437A1, “Biomarker for Mitochondrial Toxicity Associated with Phospholipidosis” (priority 2006, published 2011).

SMILES strings stand for the structures. “And” between values parts separate entries of the source, which are not always exact repeats. Equal values may be shown once. “Also recorded” adds a separate entry of the source.

The subject of data set [1] is Male Wistar rats. In words: PAG measurement by 1H NMR in urine after single oral dose, ratio versus time-matched controls. The data set is classed as in vivo, rat. The settings on record: for PAG: urine, individual animals. The method, then: (§1) All animals received (human) care as specified by Swiss law and in accordance with the “Guide for the care and use of laboratory animals” published by the NIH. Male Wistar rats (5 animals/dose-group) were purchased from RCC (Füllingsdorf, Switzerland) and housed individually. Treated animals were dosed orally by gavage with several doses of test compounds (Table 1). Control animals received the same volume of vehicle as placebo. Necropsy was performed 48 (subgroup A) or 168 hours (subgroup B) after a single administration (=Day 1) and urine samples were collected in metabolism cages at 0 to 4° C. (automatically refrigerated by a Tecniplast sampling/cooling unit (RACK B940, Tecniplast, USA)) at the intervals given in the sampling schedule in Table 2 into labelled sample tubes containing 1 ml of an aqueous Na-azide (1%) solution. Before aliquoting, urine volumes were determined.
Urine samples were taken on day -7,-2,-1, 1, 2, 3, 4, 5, 6 and 7, whereby Day 1 was the Day of dosing.
Immediately after reaching the end of the sampling period, the volume was determined and the samples were centrifuged at 3000 u/min (500 g) for 10 minutes.
Aliquot: Approximately 2 ml was transferred in 1.8 ml cryvials, round bottom, freestanding, with screw caps and septum for NMR-spectroscopic examinations (Bruker Analytik GmbH, Rheinstetten, Germany, Bruker part No. 85372). The vials were stored at −80° C.
Urine samples were prepared and measured on a Bruker 500 MHz NMR instrument according to the COMET 1H-NMR protocol (Keun, H. C et al., (2002) Physiological variation and analytical reproducibility in metabonomic urinalysis. Chem. Res. Tox. 15, 1380-1386) and as described above. In total 467 urine samples were analyzed. After measurement, all data were processed by XWINMR 3.5.6 (Bruker Biospin AG, Fällanden). Representative spectra are depicted in FIG. 2. Phase correction and baseline correction were performed with NMRPROC 0.3 (T. Ebbels, H. Keun; Imperial College). Spectral data were binned using AMIX 2.6 (Bruker Biospin AG, Fällanden) following the COMET Data Processing & Pattern Recognition protocol (Keun, H. C., et al., (2002) Physiological variation and analytical reproducibility in metabonomic urinalysis. Chem. Res. Tox. 15, 1380-1386). QC check procedures (Dieterle F., Ross A., Schlotterbeck G., Senn H. (2006) Probabilistic Quotient Normalization as Robust Method to Account for Dilution of Complex Biological Mixtures. Application in 1H NMR Metabonomics. Anal. Chem. 78, 4281-4290) were applied on binned data to detect outliers. In total 7 outliers were detected and removed from further analysis. All data were mean-centered and normalized using the probabilistic quotient normalization (Dieterle F., Ross A., Schlotterbeck G., Senn H. (2006) Probabilistic Quotient Normalization as Robust Method to Account for Dilution of Complex Biological Mixtures. Application in 1H NMR Metabonomics. Anal. Chem. 78, 4281-4290.). All binned data were annotated and transferred to the ANT (ANT: Affymetrix NMR Toxicology Data System) database.
The exact PAG quantification was performed according to following procedure: • Baseline subtraction of spectra • Integration of PAG peaks ((=7.47 ppm, (=7.39 ppm, (=3.79 ppm, and (=3.7 ppm respectively) and Citrate region ((=2.66-2.74 ppm and 2.50-2.58 ppm). • Quotient normalization (Dieterle F., Ross A., Schlotterbeck G., Senn H. (2006) Probabilistic Quotient Normalization as Robust Method to Account for Dilution of Complex Biological Mixtures. Application in 1H NMR Metabonomics. Anal. Chem. 78, 4281-4290.) • Divide each of the PAG bins by its average (all spectra) to correct for different relaxation times and number of protons • Calculate median out of the PAG bins • Calculate ratio versus time-matched controls

A short description of data set [2]: potential to induce phospholipidosis judged from amphiphilicity and basic pKa. As to conditions: from reduced amphiphilicity and basic pKa. From the text:
The structural difference between both molecules can be mainly characterized by the exchange of the piperazine against a morpholine moiety in compound 2.

Data set [3] in a line: basic pKa value. The data set is classed as physicochemical.
Data set [4] deals with lymphocytes. As to the kind of experiment: Electron microscopic examination of buffy coat lymphocytes for lamellar bodies (determination of phospholipidosis). The data set is classed as in vivo, rat. The settings on record: for lymphocytes %, pos. / lymphocytes positive (with lamellar bodies): individual rats, 1000 mg/kg/day. The method, then:
as §1
Blood samples (as much as possible) were withdrawn from all animals at necropsy at about 48 hours after dosing (subgroup A) and about 168 hours after dosing (subgroup B)
The samples were collected from the abdominal aorta or by cardiac puncture under terminal anaesthesia (CO2). A total of at least 2 ml blood was required to gain buffy coat (buffy coat=leukocyte band) samples.
After fixation in 2.5% glutaraldehyde, the buffy coat samples from all animals were embedded in Epon. […] All thin sections were examined ultrastructurally. If possible, 200 lymphocytes per sample were examined for lamellar bodies. The results per sample include the total number of lymphocytes examined, the total number of positive lymphocytes (i.e. with lamellar bodies), the percentage of positive lymphocytes and a grading of severity of phospholipidosis (criteria see table 4)

Setting [5] is: necropsy 48 hours after application.
[6] abbreviates: necropsy 168 hours after application.

As usually defined, the pKa is the pH at which an ionisable group is half protonated. Read a low pKa as a stronger acid or weaker base. For the compound `CN(C(=O)C(C)(C)c1cc(C(F)(F)F)cc(C(F)(F)F)c1)c1cnc(N2CCOCC2)cc1-c1ccccc1Cl` [Compound 2, 2-(3,5-Bis-trifluoromethyl-phenyl)-N-[4-(2-chloro-phenyl)-6-morpholin-4-yl-pyridin-3-yl]-N-methyl-isobutyramide], the PAG in data set [1] (High_Dose group, Time 0 (within 8 hours before treatment)) is 0.3191 and 0.4082 and 0.1757 and 0.4688 and 0.3904 and 0.3807 and 0.4568 and 0.5015 and 0.3805 and 0.4405; in data set [1] (High_Dose group, Time 8 (within 8 hours after treatment)), 0.6552 and 0.2654 and 0.3244 and 0.3661 and 0.5090 and 0.8253 and 0.6223 and 0.6794 and 0.5865 and 0.5553; in data set [1] (High_Dose group, Time 24 (within 8 to 24 hours after treatment)), 0.4048 and 0.3363 and 0.1408 and 0.3750 and 0.4284 and 0.6538 and 0.4408 and 0.2588 and 0.4111 and 0.3592; in data set [1] (High_Dose group, Time −16 (1 day before treatment)), 0.6280 and 0.3499 and 0.4531 and 0.5078 and 0.6008 and 0.3961 and 0.6035 and 0.5396 and 0.6968; in data set [1] (High_Dose group, Time −40 (2 days before treatment)) it was 0.5320 and 0.2568 and 0.4805 and 0.4717 and 0.4514 and 0.4760 and 0.6419 and 0.7515 and 0.6794 and 0.7696; in data set [1] (Low_Dose group, Time 0 (within 8 hours before treatment)), 0.6632 and 0.5179 and 0.2795 and 0.6376 and 0.3104 and 0.3524 and 0.4991 and 0.5273 and 0.2959 and 0.3191. The PAG in data set [1] (Low_Dose group, Time 8 (within 8 hours after treatment)) is 0.8897 and 0.6310 and 0.3915 and 1.2919 and 0.3580 and 0.9744 and 0.3039 and 0.7208 and 0.6353 and 0.4304; in data set [1] (Low_Dose group, Time 24 (within 8 to 24 hours after treatment)), 0.6934 and 0.3762 and 0.4835 and 0.8446 and 0.3743 and 0.5615 and 0.3777 and 0.4892 and 0.3393 and 0.4166; in data set [1] (Low_Dose group, Time 48 (2 days after treatment)), 0.6453 and 0.3298 and 0.3762 and 0.7958 and 0.1879; in data set [1] (Low_Dose group, Time −16 (1 day before treatment)), 1.0275 and 1.1002 and 0.4610 and 1.3440 and 0.2541 and 0.7357 and 0.5260 and 0.6162 and 0.5218 and 0.4132; in data set [1] (Low_Dose group, Time −40 (2 days before treatment)), 0.3418 and 0.5238 and 0.5336 and 0.7115 and 0.6105 and 0.5232. In addition, the “PAG levels of both dose groups versus time matched controls” value in data set [1] (rat, single oral dose 300 and 1000 mg/kg) was “comparable to their time matched controls”. Further, the “dose dependant change of PAG levels in urine” value in data set [1] (rat, single oral dose, both dose groups, normalized to time matched controls) is listed as “No significant dose dependant change”. For the same compound, the “potential to induce phospholipidosis” value in data set [2] is listed as “low potential”. In data set [3], this compound showed a pKa of 4.07. The “lymphocytes %, pos.” value in data set [4] (setting [5]) and in data set [4] (setting [6]) was 0% throughout. Further, the “lymphocytes positive (with lamellar bodies)” value in data set [4] (setting [5]) and in data set [4] (setting [6]) was 0 throughout. Also, the “lymphocytes containing cytoplasmic lamellar bodies (finding in words)” value in data set [4] (rats, single oral dose, necropsy 48 or 168 hours after application) is “did not show any lymphocytes with lamellar bodies; also recorded: not affected; also recorded: did not show any lymphocytes containing cytoplasmic lamellar bodies”.
